# Experimental data as given in patent US20100022404A1, “Gene/protein marker for prediction or diagnosis of pharmacological efficacy of aurora a inhibitor” (priority 2006, published 2010).
# How the values were obtained:
# [1] = system: Aurora B (Thr232) phosphorylation; assay: Western blotting of total Aurora B and phospho-Aurora B (Thr232) in synchronized HeLa S3 cells with Aurora inhibitors (Example 7); type: cell-based, human; settings: 300 nM added 4 hours after release, sampling 0 to 24 hours, FIG. 24
# Protocol: First, HeLa S3 cells were synchronized at the GI/S boundary by the above-mentioned double-thymidine block, and after 4 hours from the start of release, a control (DMSO, final 0.5%), an Aurora A-selective inhibitor 6-((4-(2,3-difluorobenzoyl)piperazin-1-yl)methyl)-N-thiazol-2-ylpyridin-2-amine (in FIG. 24, this is shown as “Aurora A Inhibitor 1”), an Aurora B inhibitor ZM477439 (J. Cell. Biol., Vol. 161, p. 267, 2003) or a pan-Aurora inhibitor VX-680 was added in an amount of 300 nM, followed by sampling at regular intervals for 0 to 24 hours. Next, the samples were analyzed for total Aurora B and phospho-Aurora B (Thr232) expression by western blotting.
# [2] = system: PD marker candidate genes (BIRC5, KNTC2, PRC1, TACC3, DLG7) in HeLa-S3 cells; assay: Real-time PCR of PD marker candidate genes after treatment with Aurora A inhibitor (Example 2); type: cell-based, human; settings: 24 hours, FIGS. 6 to 10
# Protocol: A predetermined concentration of 6-((4-(2,3-difluorobenzoyl)piperazin-1-yl)methyl)-N-thiazol-2-ylpyridin-2-amine was acted on HeLa-S3 cells; and after 24 hours, the cells were collected, the total RNA was isolated and then converted into cDNA, and this was processed for real-time PCR in the same manner as in Example 1.
# [3] = system: histone H3 (Ser28) phosphorylation; assay: Western blotting of histone H3 Ser28 and Ser10 phosphorylation in asynchronous HeLa S3 cells (Example 8); type: cell-based, human; settings: concentration series, compared with phospho-Aurora B (Thr232), FIG. 26
# [4] = system: PD marker candidate genes in HeLa-luc cancer graft; assay: Expression change of PD marker candidate genes in planted cancer, continuous administration to rat (Example 3); type: in vivo, F344/N Jcl-rnu female nude rat; settings: nude rat with HeLa-luc graft, intravenous drip infusion for 48 hours
# Protocol: (§1) First, a cervical cancer strain HeLa-luc cells were subcutaneously transplanted to the back of an F344/N Jcl-rnu female nude rat. After 1 week, a […] cancer nude rat was subjected to femoral vein cannulation operation; and using a syringe pump, an Aurora A inhibitor 6-((4-(2-fluoro-3-(trifluoromethyl)benzoyl)piperazin-1-yl)methyl)-N-1H-pyrazol-3-ylpyrazin-2-amine was administered by intravenous drip infusion for 48 hours. After the administration, the collected cancer graft and the skin specimen were frozen and stored in liquid nitrogen.
# Next, the total RNA was isolated from the collected cancer graft and formed into cDNA, which was checked for the expression change of the PD marker candidate genes. In addition to 5 genes identified in culture cells, Aurora A (AurA) and Aurora B (AurB) were also investigated as candidate genes. The primer probe sets for Aurora A and B are as follows. For every primer and probe, a human gene was used as the template.
# HeLa S3 cells = assay: Cell cycle analysis by flow cytometry in asynchronous HeLa S3 cells with Aurora A-selective inhibitor (Example 6); type: cell-based, human; settings: 8 hours and 24 hours, FIGS. 20, 21
# Protocol: (§2) First, asynchronously-cultured HeLa S3 cells were planted in an amount of 1×10^6 cells, and incubated overnight at 37° C. in 5% CO2. At 10:00 on the next day, the medium was exchanged with a medium to which 6-((4-(3-chloro-2-fluorobenzoyl)piperazin-1-yl)methyl)-N-thiazol-2-ylpyridin-2-amine had been added to be a final concentration of 0, 30, 100, 300, 1000, 3000, 10000, 30000 nM, and then, after 8 hours and 24 hours, the cells were peeled with trypsin and collected. A half of the cells was analyzed by western blotting; ¼ of the cells were analyzed for cell cycle through flow cytometry; and the last remaining ones were analyzed for phosphorylation of histone H3 (Ser10). The cell samples processed in the same manner were analyzed for expression profiling through TaqMan-PCR.
# [5] = system: Aurora B (Thr232) phosphorylation; assay: Western blotting of phospho-Aurora B (Thr232), Aurora B, Survivin, Plk1 in asynchronous HeLa S3 cells with Aurora A-selective inhibitor (Example 6); type: cell-based, human; settings: for ratio of phospho-Aurora B/Aurora B: based on the compound concentration 0 nM of 1
# Protocol: as §2
# [6] = system: histone H3 (Ser10) phosphorylation; assay: Histone H3 (Ser10) phosphorylation by flow cytometry in HeLa S3 cells (Example 6); type: cell-based, human; settings: FIG. 23
# Protocol: as §2
# [7] = system: PD marker candidate genes in rat skin; assay: Expression change of PD marker candidate genes in skin, continuous administration to rat (Example 4); type: in vivo; settings: same rat skin as Example 3 (intravenous drip infusion for 48 hours); FIGS. 13 to 16
# Protocol: as §1
# The same rat skin as that used in Example 3 was checked for the expression change of PD marker candidate genes through real-time PCR. The primers of the candidate genes in the rat are as shown below. For every primer and probe, a rat gene was used as the template. The probe was modified with FAM/TAMRA.
# [8] = HeLa S3 cells, 8 hours and 24 hours
# [9] = HeLa S3 cells, expression admitted in the background with no compound addition
compound,measurement,setting,value
"O=C(c1cccc(F)c1F)N1CCN(Cc2cccc(Nc3nccs3)n2)CC1 [6-((4-(2,3-difluorobenzoyl)piperazin-1-yl)methyl)-N-thiazol-2-ylpyridin-2-amine]",Aurora B expression,[1],expressed Aurora B to a high level even after 10 hours
same,phospho-Aurora B (Thr232) expression,[1],remarkably increased
same,"expression level of the PD marker candidate genes (BIRC5, KNTC2, PRC1, TACC3, DLG7)",[2],increased dependently on the Aurora A inhibitor concentration
same,phospho-histone H3 (Ser28) induction by inhibitor,[3],concentration-dependent induction
O=C(c1cccc(C(F)(F)F)c1F)N1CCN(Cc2cncc(Nc3cc[nH]n3)n2)CC1 [6-((4-(2-fluoro-3-(trifluoromethyl)benzoyl)piperazin-1-yl)methyl)-N-1H-pyrazol-3-ylpyrazin-2-amine],expression of BIRC5 in cancer graft,[4],significantly increased
same,expression of DLG7 in cancer graft,[4],significantly increased
same,peak of the expression change (dose),[4],1 mpk
same,expression level of the PD marker candidate genes in cancer graft,[4]; FIGS. 11 and 12,increased
O=C(c1cccc(Cl)c1F)N1CCN(Cc2cccc(Nc3nccs3)n2)CC1 [6-((4-(3-chloro-2-fluorobenzoyl)piperazin-1-yl)methyl)-N-thiazol-2-ylpyridin-2-amine],concentration from which the proportion of the M-stage began to increase,HeLa S3 cells,around 300 nM
same,concentration up to which the M-stage was kept,HeLa S3 cells,around 10 μM
same,concentration range in which Aurora B inhibition begins (phosphorylation of Aurora B again inhibited),[5]; HeLa S3 cells,> 30 µM
same,expression of phospho-Aurora B (Thr232),"[5]; HeLa S3 cells, 0-30000 nM, exposure 8 hours and 24 hours, FIG. 22",increased dependently on the administration concentration
same,concentration of phosphorylation depression of Aurora B (considered Aurora B inhibition),[5]; [8],≥ 30 µM
same,expression level of Aurora B,[5]; [8],did not change so much
same,expression induction window of Plk1,[5]; [9],at most 3.5 times
same,expression induction window of Survivin,[5]; [9],at most 3.5 times
same,ratio of phospho-Aurora B/Aurora B,[5]; exposure period of 8 hours,at most 16 times
same,ratio of phospho-Aurora B/Aurora B,[5]; exposure period of 24 hours,up to 10 times
same,Histone H3 (Ser10) phosphorylation in flow cytometry,[6],could not take a large window
Cc1cc(Nc2cc(N3CCN(C)CC3)nc(Sc3ccc(NC(=O)C4CC4)cc3)n2)n[nH]1 [VX-680],Aurora B expression,[1],detected on the same level as that in the control
same,phospho-Aurora B (Thr232) expression,[1],no phospho-Aurora B was detected at all
same,phospho-histone H3 (Ser28) induction by inhibitor,[3],did not have a phosphorylation band at all
COc1cc2c(Nc3ccc(NC(=O)c4ccccc4)cc3)ncnc2cc1OCCCN1CCOCC1 [ZM477439],Aurora B expression,[1],detected on the same level as that in the control
same,phospho-Aurora B (Thr232) expression,[1],no phospho-Aurora B was detected at all
"O=C(O)[C@]1(Cc2cccc(Nc3nccs3)n2)CC[C@@H](Oc2cccc(Cl)c2F)CC1 [trans-4-(3-chloro-2-fluorophenoxy)-1-((6-(1,3-thiazol-2-ylamino)pyridin-2-yl)methyl)cyclohexanecarboxylic acid]",expression level of the candidate genes in rat skin,[7],significantly increased
